Here are results for 42 compounds from US10688093B2, “Methods, compositions, and uses of novel Fyn kinase inhibitors” (priority 2015, dated 2020).

The target in this assay is full-length recombinant human FYN A (Homo sapiens (Human), UniProt P06241). In words: ADP-Glo Kinase Assay of FYN kinase inhibition. In kind it is biochemical. Conditions: primary screen, initial compounds. The essentials:
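GST-tagged full-length FYN A (baculovirus, Sf9) at 3 pg preincubated 30 min RT with compound (10-point 3-fold series from 10 μM) in Tris pH 7.5/MgCl2 buffer. 12-mer tyrosine peptide plus 12.5 pmol ATP added, 90 min RT; ADP measured by ADP-Glo luminescence, IC50 from dose-response.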

Chain of full-length recombinant human FYN A (P06241 whole entry): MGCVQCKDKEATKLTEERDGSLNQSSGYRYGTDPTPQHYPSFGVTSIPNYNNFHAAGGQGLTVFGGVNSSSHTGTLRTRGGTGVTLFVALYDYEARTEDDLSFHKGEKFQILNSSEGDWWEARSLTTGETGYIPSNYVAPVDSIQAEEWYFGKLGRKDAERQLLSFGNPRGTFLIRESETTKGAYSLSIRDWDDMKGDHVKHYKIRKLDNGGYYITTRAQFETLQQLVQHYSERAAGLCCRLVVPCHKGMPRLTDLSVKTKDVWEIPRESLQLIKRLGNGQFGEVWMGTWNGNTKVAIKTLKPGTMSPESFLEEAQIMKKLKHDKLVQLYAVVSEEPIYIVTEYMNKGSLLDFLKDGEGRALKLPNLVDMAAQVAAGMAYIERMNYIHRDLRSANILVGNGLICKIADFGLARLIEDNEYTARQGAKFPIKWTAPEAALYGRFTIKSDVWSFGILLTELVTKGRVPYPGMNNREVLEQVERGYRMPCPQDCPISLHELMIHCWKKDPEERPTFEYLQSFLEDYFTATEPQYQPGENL

Take `CC(=O)Nc1cccc(-c2ccc3ncc(-c4ccc(CO)cc4)n3n2)c1` [Compound 443, N-[3-[3-[4-(hydroxymethyl)phenyl]imidazo [1,2-b]pyridazin-6-yl]phenyl] acetamide]: the IC50 was 2240 nM.
Consider `CC(=O)c1cccc(-c2cnc3ccc(-c4ccc(F)cc4)nn23)c1` [Compound 444, 1-[3-[6-(4-fluorophenyl)imidazo[1,2-b]pyridazin-3-yl]phenyl] ethanone], for which the IC50 stood at 4810 nM.
For `CNC(=O)c1cccc(-c2ccc3ncc(-c4cccc(NC(C)=O)c4)n3n2)c1` [Compound 445, 3-[3-(3-acetamido-phenyl)imidazo [1,2-b]pyridazin-6-yl]-N-methyl-benzamide], the IC50 was found to be 1330 nM.
With `CNc1cncc(-c2ccc3[nH]ccc3c2)n1` [Compound 445_0204, 6-(1H-indol-5-yl)-N-methyl-pyrazin-2-amine], the IC50 was 14900 nM.
Regarding `OCc1cccc(-c2ccc3ncc(-c4ccccc4)n3n2)c1` [Compound 446, [3-(3-phenylimidazo [1,2-b]pyridazin-6-yl)phenyl] methanol], the IC50 turned out to be 1930 nM.
Regarding `Cn1cc(-c2ccc3ncc(-c4ccncc4)n3n2)cn1` [Compound 447, 6-(1-methylpyrazol-4-yl)-3-(4-pyridyl)imidazo [1,2-b]pyridazine], the IC50 was found to be 30000 nM.
In the case of `CN(C)CCNC(=O)c1cccc(-c2ccc3ncc(-c4cccc(OC(F)(F)F)c4)n3n2)c1` [Compound 448, N-(2-dimethylamino-ethyl)-3-[3-[3-(trifluoromethoxy)phenyl]imidazo [1,2-b]pyridazin-6-yl]benzamide] it was 3930 nM; in that of `OCc1ccc(-c2ccc3ncc(-c4ccc(CO)cc4)n3n2)cc1` [Compound 449, [4-[3-[4-(hydroxymethyl)phenyl]imidazo [1,2-b]pyridazin-6-yl]phenyl] methanol], 1040 nM; in that of `COc1cc(-c2cnc3ccc(-c4ccc5c(c4)OCO5)nn23)ccc1O` [Compound 450, 4-[6-(1,3-benzodioxol-5-yl)imidazo[1,2-b]pyridazin-3-yl]-2-methoxy-phenol], 200 nM.
The same measure for `CC(=O)c1cccc(-c2cnc3ccc(-c4cccs4)nn23)c1` [Compound 451, 1-[3-[6-(2-thienyl)imidazo [1,2-b]pyridazin-3-yl]phenyl] ethanone]: 416 nM; for `COc1cncc(-c2ccc3ncc(-c4cccs4)n3n2)c1` [Compound 452, 6-(5-methoxy-3-pyridyl)-3-(2-thienyl)imidazo [1,2-b]pyridazine]: 2860 nM; for `c1csc(-c2ccc3ncc(-c4cccs4)n3n2)c1` [Compound 453, 3,6-bis(2-thienyl)imidazo [1,2-b]pyridazine]: 4890 nM.
On to `CN(C)CCNC(=O)c1cccc(-c2cnc3ccc(-c4cnn(C)c4)nn23)c1` [Compound 454, N-(2-dimethyl-aminoethyl)-3-[6-(1-methyl-pyrazol-4-yl)imidazo[1,2-b]pyridazin-3-yl]benzamide], for which the half-inhibitory concentration (IC50) was 1760 nM.
The same measure for `CN(C)CCNC(=O)c1cccc(-c2cnc3ccc(-c4ccc5c(c4)OCO5)nn23)c1` [Compound 455, 3-[6-(1,3-benzodioxol-5-yl)imidazo[1,2-b]pyridazin-3-yl]-N-(2-dimethylamino-ethyl)benzamide]: 2020 nM.
Regarding `CN(C)CCNC(=O)c1cccc(-c2cnc3ccc(-c4cccc(C(N)=O)c4)nn23)c1` [Compound 456, 3-[3-[3-(2-dimethylamino-ethylcarbamoyl)phenyl]imidazo [1,2-b]pyridazin-6-yl]benzamide], the IC50 was determined as 4150 nM.
On to `O=C(NCCO)c1cccc(-c2ccc3ncc(-c4cccc(O)c4)n3n2)c1` [Compound 457, N-(2-hydroxyethyl)-3-[3-(3-hydroxyphenyl)imidazo[1,2-b]pyridazin-6-yl]benzamide], for which the IC50 is 352 nM.
As for `COc1cc(-c2cnc3ccc(-c4cc(OC)c(OC)c(OC)c4)nn23)ccc1O` [Compound 458, 2-methoxy-4-[6-(3,4,5-trimethoxyphenyl)imidazo[1,2-b]pyridazin-3-yl]phenol], the IC50 came out at 1810 nM.
The same measure for `OCc1cccc(-c2ccc3ncc(-c4ccoc4)n3n2)c1` [Compound 459, [3-[3-(3-furyl)imidazo[1,2-b]pyridazin-6-yl]phenyl] methanol]: 7330 nM; for `NC(=O)c1ccc(-c2cnc3ccc(Cc4ccccc4)nn23)cc1` [Compound 460, 4-(6-benzylimidazo [1,2-b]pyridazin-3-yl)benzamide]: 711 nM.
As for `CC(=O)Nc1ccc(-c2ccc3ncc(-c4cccc(C(=O)NCCN(C)C)c4)n3n2)cc1` [Compound 461, 3-[6-(4-acetamidophenyl)imidazo[1,2-b]pyridazin-3-yl]-N-(2-dimethylamino-ethyl)benzamide], the IC50 stood at 983 nM.
`COc1cc(-c2cnc3ccc(-c4cccc(OC(F)(F)F)c4)nn23)ccc1O` [Compound 462, 2-methoxy-4-[6-[3-(trifluoro-methoxy)phenyl]imidazo[1,2-b]pyridazin-3-yl]phenol]: the IC50 was 835 nM.
For `CN(C)CCNC(=O)c1cccc(-c2cnc3ccc(-c4cccc(CO)c4)nn23)c1` [Compound 463, N-(2-dimethylamino-ethyl)-3-[6-[3-(hydroxymethyl)phenyl]imidazo [1,2-b]pyridazin-3-yl]benzamide], the IC50 is 816 nM.
`NC(=O)c1ccc(-c2cnc3ccc(Cc4ccc(F)c(F)c4)nn23)cc1` [Compound 464, 4-[6-[(3,4-difluorophenyl)methyl]imidazo [1,2-b]pyridazin-3-yl]benzamide]: the IC50 turned out to be 3070 nM.
As to `CC(=O)Nc1cccc(-c2ccc3ncc(-c4cccc(C(=O)NCCN(C)C)c4)n3n2)c1` [Compound 465, 3-[6-(3-acetamidophenyl)imidazo[1,2-b]pyridazin-3-yl]-N-(2-dimethylamino-ethyl)benzamide], the IC50 is 3170 nM.
On to `COc1cc(-c2cnc3ccc(-c4cccc(C(F)(F)F)c4)nn23)ccc1O` [Compound 466, 2-methoxy-4-[6-[3-(trifluoro-methyl)phenyl]imidazo[1,2-b]pyridazin-3-yl]phenol], for which the IC50 was found to be 1080 nM.
For the compound `COc1cncc(-c2cnc3ccc(Cc4ccccc4)nn23)c1` [Compound 467, 6-benzyl-3-(5-methoxy-3-pyridyl)imidazo [1,2-b]pyridazine], the IC50 turned out to be 2670 nM.
With `Cc1cccc(Cc2ccc3ncc(-c4ccc(C(N)=O)cc4)n3n2)c1` [Compound 468, 4-[6-(m-tolylmethyl)imidazo[1,2-b]pyridazin-3-yl]benzamide], the 50% inhibitory concentration (IC50) worked out at 3100 nM.
For the compound `COc1ccccc1-c1ccc2ncc(-c3cccc(C(=O)NCCN(C)C)c3)n2n1` [Compound 469, N-(2-dimethylamino-ethyl)-3-[6-(2-methoxyphenyl)imidazo[1,2-b]pyridazin-3-yl]benzamide], the IC50 was 2140 nM.
Turning to `CN(C)CCNC(=O)c1cccc(-c2cnc3ccc(-c4cccc(Oc5ccccc5)c4)nn23)c1` [Compound 470, N-(2-dimethylamino-ethyl)-3-[6-(3-phenoxyphenyl)imidazo[1,2-b]pyridazin-3-yl]benzamide], the IC50 worked out at 19200 nM.
In the case of `Oc1cccc(-c2cnc3ccc(C4CC4)nn23)c1` [Compound 471, 3-(6-cyclo-propylimidazo[1,2-b]pyridazin-3-yl)phenol], the half-inhibitory concentration (IC50) is 1890 nM.
In the case of `COc1cc(-c2cnc3ccc(-c4cccc(F)c4)nn23)ccc1O` [Compound 472, 4-[6-(3-fluoro-phenyl)imidazo [1,2-b]pyridazin-3-yl]-2-methoxy-phenol] it was 281 nM.
On to `COc1cncc(-c2cnc3ccc(Cc4ccc(F)cc4)nn23)c1` [Compound 473, 6-[(4-fluoro-phenyl)methyl]-3-(5-methoxy-3-pyridyl)imidazo [1,2-b]pyridazine], for which the IC50 worked out at 4420 nM.
`O=C(NCCO)c1cccc(-c2ccc3ncc(-c4ccc(CO)cc4)n3n2)c1` [Compound 475, N-(2-hydroxyethyl)-3-[3-[4-(hydroxymethyl)phenyl]imidazo [1,2-b]pyridazin-6-yl]benzamide]: the IC50 turned out to be 2140 nM.
The same measure for `COc1cc(-c2cnc3ccc(-c4cccc(C(N)=O)c4)nn23)ccc1O` [Compound 476, 3-[3-(4-hydroxy-3-methoxy-phenyl)imidazo [1,2-b]pyridazin-6-yl]benzamide]: 223 nM; for `Cc1cccc(Cc2ccc3ncc(-c4cnn(C)c4)n3n2)c1` [Compound 477, 3-(1-methylpyrazol-4-yl)-6-(m-tolylmethyl) imidazo[1,2-b]pyridazine]: 1800 nM.
The same measure for `CC(=O)c1cccc(-c2cnc3ccc(-c4cccc(C(=O)NCCO)c4)nn23)c1` [Compound 478, 3-[3-(3-acetylphenyl)imidazo[1,2-b]pyridazin-6-yl]-N-(2-hydroxyethyl) benzamide]: 629 nM; for `OCc1ccc(-c2cnc3ccc(Cc4ccccc4)nn23)cc1` [Compound 479, [4-(6-benzylimidazo [1,2-b]pyridazin-3-yl)phenyl] methanol]: 3230 nM; for `COc1cc(-c2cnc3ccc(Cc4ccc(F)cc4)nn23)ccc1O` [Compound 480, 4-[6-[(4-fluorophenyl)methyl]imidazo [1,2-b]pyridazin-3-yl]-2-methoxy-phenol]: 2090 nM.
In the case of `Cn1cc(-c2cnc3ccc(Cc4ccc(F)cc4)nn23)cn1` [Compound 481, 6-[(4-fluorophenyl)methyl]-3-(1-methylpyrazol-4-yl)imidazo [1,2-b]pyridazine], the IC50 turned out to be 1300 nM.
On to `O=C(NCCO)c1cccc(-c2ccc3ncc(-c4cccc(Cl)c4)n3n2)c1` [Compound 483, 3-[3-(3-chlorophenyl)imidazo[1,2-b]pyridazin-6-yl]-N-(2-hydroxyethyl) benzamide], for which the half-inhibitory concentration (IC50) was determined as 30000 nM.
With `Cc1cccc(Cc2ccc3ncc(-c4cccc(C(N)=O)c4)n3n2)c1` [Compound 484, 3-[6-(m-tolylmethyl)imidazo[1,2-b]pyridazin-3-yl]benzamide], the IC50 was 2170 nM.
In the case of `CC(=O)c1cccc(-c2cnc3ccc(Cc4ccccc4)nn23)c1` [Compound 485, 1-[3-(6-benzylimidazo [1,2-b]pyridazin-3-yl)phenyl] ethanone] it was 3970 nM.
